Literature values, collected in patent US12011496B2, “Topical macqui berry formulation” (Tracie Martyn International, Inc., priority 2005, dated 2024).
pIC50: −log10 of the molar value.

What was measured:
[1] = antioxidant properties
[2] = using only natural ingredients (botanicals, antioxidants, coffe oil and microfine zinc oxide)
[3] = animal studies

In the case of `O=C(/C=C/c1ccc(O)c(O)c1)O[C@H](Cc1ccc(O)c(O)c1)C(=O)O` [Rosmarinic acid], the pIC50 [1] is listed as 6.13.
In the case of `COc1ccc(C=CC(=O)OCCC(C)C)cc1` [isoamyl-p-methoxycinnamate], the spf [2] is listed as “greater than 30”.
In the case of `C=CCc1cc(OC)c2c(c1)OCO2` [myristicin, 3-methoxy,4,5-methylendioxy-allylbenzene], the oral psychotropic dose is listed as 400 mg.
For `NCCC(=O)N[C@@H](Cc1cnc[nH]1)C(=O)O` [Carnosine, β-alanyl-L-histidine], the “safety at dosages above 500 mg/kg body weight” value [3] is given as “safe”.
